Experimental data taken from patent publication US20220323406A1, “METHODS AND COMPOSITIONS FOR DIFFERENTIATING STEM CELLS” (Massachusetts Institute of Technology, priority 2019, published 2022).

Columns and labels:
[1] = test system: ENR+CD organoids; assay: Primary screen: ATP (CellTiter-Glo 3D, CTG) cell number/viability, 2.5-D 384-well ENR+CD organoids;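 further: compounds given at plating and again on day 3 over a 6-day differentiation from ENR+CV stem-cell-enriched precursors, ATP measured on day 6, plate median as control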
[2] = test system: ENR+CD organoids (ISC to Paneth cell differentiation); assay: Primary screen: basal (non-stimulated) lysozyme secretion LYZ.NS, 2.5-D 384-well ENR+CD organoid differentiation; assay type: cell-based, mouse
Source text: (§1) High-throughput screening.

[3] = test system: ENR+CD organoids (ISC to Paneth cell differentiation); assay: Primary screen: CCh-stimulated lysozyme secretion LYZ.S, 2.5-D 384-well ENR+CD organoid differentiation; assay type: cell-based, mouse; conditions: primary screen
Source text: as §1

[4] = primary screen, dose 0.08 uM, FC relative to plate median
[5] = primary screen, dose 0.08 uM, standard z score
[6] = primary screen, dose 0.40 uM, FC relative to plate median
[7] = primary screen, dose 0.40 uM, standard z score
[8] = primary screen, dose 2.00 uM, FC relative to plate median
[9] = primary screen, dose 2.00 uM, standard z score
[10] = primary screen, dose 10.00 uM, FC relative to plate median
[11] = primary screen, dose 10.00 uM, standard z score
[12] = dose 0.08 uM, FC relative to plate median
[13] = dose 0.40 uM, FC relative to plate median
[14] = dose 2.00 uM, FC relative to plate median
[15] = dose 10.00 uM, FC relative to plate median
[16] = primary screen; dose 0.08 uM; FC vs plate median
[17] = primary screen; dose 0.40 uM; FC vs plate median
[18] = primary screen; dose 2.00 uM; FC vs plate median
[19] = primary screen; dose 10.00 uM; FC vs plate median
[20] = dose 0.08 uM, FC vs plate median
[21] = dose 0.40 uM, FC vs plate median
[22] = dose 2.00 uM, FC vs plate median
[23] = dose 10.00 uM, FC vs plate median
[24] = primary screen, standard z score, dose 0.08 uM
[25] = primary screen, standard z score, dose 0.40 uM
[26] = primary screen, standard z score, dose 2.00 uM
[27] = primary screen, standard z score, dose 10.00 uM

Compound: Cc1nn(-c2ccccc2)c(C)c1/C=N/N1CCN(Cc2ccccc2)CC1 [SANT-1]
- Dose.FC.CTG [1, 4]: 0.308 log2 fold change
- Z.CTG [1, 5]: 0.736
- Dose.FC.CTG [1, 6]: 0.078 log2 fold change
- Z.CTG [1, 7]: 0.186
- Dose.FC.CTG [1, 8]: 0.137 log2 fold change
- Z.CTG [1, 9]: 0.327
- Dose.FC.CTG [1, 10]: −0.042 log2 fold change
- Z.CTG [1, 11]: −0.100
- Dose.FC.LYZ.NS [2, 4]: 0.056 log2 fold change
- Z.LYZ.NS [2, 5]: 0.485
- Dose.FC.LYZ.NS [2, 6]: 0.000 log2 fold change
- Z.LYZ.NS [2, 7]: 0.002
- Dose.FC.LYZ.NS [2, 8]: 0.175 log2 fold change
- Z.LYZ.NS [2, 9]: 1.528
- Dose.FC.LYZ.NS [2, 10]: −0.049 log2 fold change
- Z.LYZ.NS [2, 11]: −0.430
- Dose.FC.LYZ.S [3, 12]: 0.112 log2 fold change
- Dose.FC.LYZ.S [3, 13]: 0.024 log2 fold change
- Dose.FC.LYZ.S [3, 14]: 0.101 log2 fold change
- Dose.FC.LYZ.S [3, 15]: −0.120 log2 fold change

Compound: O=C(NNc1ccccc1)c1ccncc1 [PluriSIn #1 (NSC 14613)]
- Z.CTG [1, 5]: −0.349
- Z.CTG [1, 7]: −0.226
- Z.CTG [1, 9]: −1.035
- Z.CTG [1, 11]: −2.038
- Dose.FC.CTG [1, 16]: −0.146 log2 fold change
- Dose.FC.CTG [1, 17]: −0.095 log2 fold change
- Dose.FC.CTG [1, 18]: −0.433 log2 fold change
- Dose.FC.CTG [1, 19]: −0.853 log2 fold change
- Z.LYZ.NS [2, 5]: 0.720
- Z.LYZ.NS [2, 7]: 0.039
- Z.LYZ.NS [2, 9]: −0.929
- Z.LYZ.NS [2, 11]: −2.475
- Dose.FC.LYZ.NS [2, 16]: 0.083 log2 fold change
- Dose.FC.LYZ.NS [2, 17]: 0.004 log2 fold change
- Dose.FC.LYZ.NS [2, 18]: −0.107 log2 fold change
- Dose.FC.LYZ.NS [2, 19]: −0.284 log2 fold change
- Dose.FC.LYZ.S [3, 20]: 0.057 log2 fold change
- Dose.FC.LYZ.S [3, 21]: −0.007 log2 fold change
- Dose.FC.LYZ.S [3, 22]: −0.133 log2 fold change
- Dose.FC.LYZ.S [3, 23]: −0.372 log2 fold change

Compound: CC(=O)c1cc([N+](=O)[O-])c(Sc2ccc(F)cc2F)s1 [P22077]
- Z.CTG [1, 5]: −0.516
- Z.CTG [1, 7]: 0.117
- Z.CTG [1, 9]: −0.320
- Z.CTG [1, 11]: −0.311
- Dose.FC.CTG [1, 16]: −0.216 log2 fold change
- Dose.FC.CTG [1, 17]: 0.049 log2 fold change
- Dose.FC.CTG [1, 18]: −0.134 log2 fold change
- Dose.FC.CTG [1, 19]: −0.130 log2 fold change
- Z.LYZ.NS [2, 5]: 0.338
- Z.LYZ.NS [2, 7]: −0.041
- Z.LYZ.NS [2, 9]: 0.248
- Z.LYZ.NS [2, 11]: −0.487
- Dose.FC.LYZ.NS [2, 16]: 0.039 log2 fold change
- Dose.FC.LYZ.NS [2, 17]: −0.005 log2 fold change
- Dose.FC.LYZ.NS [2, 18]: 0.028 log2 fold change
- Dose.FC.LYZ.NS [2, 19]: −0.056 log2 fold change
- Dose.FC.LYZ.S [3, 20]: −0.182 log2 fold change
- Dose.FC.LYZ.S [3, 21]: 0.065 log2 fold change
- Dose.FC.LYZ.S [3, 22]: −0.007 log2 fold change
- Dose.FC.LYZ.S [3, 23]: −0.063 log2 fold change

Compound: COc1ccc2nc([S@@+]([O-])Cc3ncc(C)c(OC)c3C)[nH]c2c1 [Esomeprazole Sodium]
- Dose.FC.CTG ([1]; primary screen, dose 0.08 uM): 0.288 log2 fold change
- Dose.FC.CTG ([1]; primary screen, dose 0.40 uM): 0.199 log2 fold change
- Dose.FC.CTG ([1]; primary screen, dose 2.00 uM): 0.386 log2 fold change
- Dose.FC.CTG ([1]; primary screen, dose 10.00 uM): 0.271 log2 fold change
- Dose.FC.LYZ.NS ([2]; primary screen, dose 0.08 uM): 0.086 log2 fold change
- Dose.FC.LYZ.NS ([2]; primary screen, dose 0.40 uM): 0.233 log2 fold change
- Dose.FC.LYZ.NS ([2]; primary screen, dose 2.00 uM): 0.034 log2 fold change
- Dose.FC.LYZ.NS ([2]; primary screen, dose 10.00 uM): −0.016 log2 fold change
- Z.LYZ.NS [2, 24]: 0.747
- Z.LYZ.NS [2, 25]: 2.030
- Z.LYZ.NS [2, 26]: 0.300
- Z.LYZ.NS [2, 27]: −0.139
- Dose.FC.LYZ.S ([3]; dose 0.08 uM): 0.146 log2 fold change
- Dose.FC.LYZ.S ([3]; dose 0.40 uM): 0.174 log2 fold change
- Dose.FC.LYZ.S ([3]; dose 2.00 uM): 0.043 log2 fold change
- Dose.FC.LYZ.S ([3]; dose 10.00 uM): 0.021 log2 fold change

Compound: CCCCNc1ncc(-c2ccc(CN3CCOCC3)cn2)c(NC2CCC(O)CC2)n1 (stereo not shown) [UNC2250]
- Dose.FC.CTG ([1]; primary screen, dose 0.08 uM): 0.265 log2 fold change
- Z.CTG (standard z score) ([1]; primary screen, dose 0.08 uM): 0.633
- Dose.FC.CTG ([1]; primary screen, dose 0.40 uM): 0.279 log2 fold change
- Z.CTG (standard z score) ([1]; primary screen, dose 0.40 uM): 0.667
- Dose.FC.CTG ([1]; primary screen, dose 2.00 uM): 0.105 log2 fold change
- Z.CTG (standard z score) ([1]; primary screen, dose 2.00 uM): 0.250
- Dose.FC.CTG ([1]; primary screen, dose 10.00 uM): −0.064 log2 fold change
- Z.CTG (standard z score) ([1]; primary screen, dose 10.00 uM): −0.153
- Dose.FC.LYZ.NS ([2]; primary screen, dose 0.08 uM): 0.115 log2 fold change
- Z.LYZ.NS (standard z score) ([2]; primary screen, dose 0.08 uM): 1.005
- Dose.FC.LYZ.NS ([2]; primary screen, dose 0.40 uM): 0.067 log2 fold change
- Z.LYZ.NS (standard z score) ([2]; primary screen, dose 0.40 uM): 0.587
- Dose.FC.LYZ.NS ([2]; primary screen, dose 2.00 uM): 0.085 log2 fold change
- Z.LYZ.NS (standard z score) ([2]; primary screen, dose 2.00 uM): 0.744
- Dose.FC.LYZ.NS ([2]; primary screen, dose 10.00 uM): −0.153 log2 fold change
- Z.LYZ.NS (standard z score) ([2]; primary screen, dose 10.00 uM): −1.336
- Dose.FC.LYZ.S ([3]; dose 0.08 uM): 0.142 log2 fold change
- Dose.FC.LYZ.S ([3]; dose 0.40 uM): 0.113 log2 fold change
- Dose.FC.LYZ.S ([3]; dose 2.00 uM): 0.134 log2 fold change
- Dose.FC.LYZ.S ([3]; dose 10.00 uM): −0.205 log2 fold change

Compound: O=C(NC(Cc1cc(=O)[nH]c2ccccc12)C(=O)O)c1ccc(Cl)cc1 (stereo not shown) [Rebamipide]
- Dose.FC.CTG [1, 4]: −0.256 log2 fold change
- Dose.FC.CTG [1, 6]: −0.510 log2 fold change
- Dose.FC.CTG [1, 8]: −0.203 log2 fold change
- Dose.FC.CTG [1, 10]: −0.281 log2 fold change
- Dose.FC.LYZ.NS [2, 4]: 0.096 log2 fold change
- Z.LYZ.NS [2, 5]: 0.832
- Dose.FC.LYZ.NS [2, 6]: −0.091 log2 fold change
- Z.LYZ.NS [2, 7]: −0.793
- Dose.FC.LYZ.NS [2, 8]: −0.090 log2 fold change
- Z.LYZ.NS [2, 9]: −0.780
- Dose.FC.LYZ.NS [2, 10]: −0.089 log2 fold change
- Z.LYZ.NS [2, 11]: −0.773
- Dose.FC.LYZ.S [3, 12]: −0.014 log2 fold change
- Dose.FC.LYZ.S [3, 13]: 0.014 log2 fold change
- Dose.FC.LYZ.S [3, 14]: −0.106 log2 fold change
- Dose.FC.LYZ.S [3, 15]: −0.063 log2 fold change

Compound: C#CCC(Cc1cnc2nc(N)nc(N)c2n1)c1ccc(C(=O)N[C@@H](CCC(=O)O)C(=O)O)cc1 (stereo partly shown) [Pralatrexate]
- Dose.FC.CTG [1, 4]: −0.649 log2 fold change
- Dose.FC.CTG [1, 6]: −0.853 log2 fold change
- Dose.FC.CTG [1, 8]: −0.681 log2 fold change
- Dose.FC.CTG [1, 10]: −0.922 log2 fold change
- Dose.FC.LYZ.NS [2, 4]: −0.135 log2 fold change
- Z.LYZ.NS [2, 5]: −1.173
- Dose.FC.LYZ.NS [2, 6]: −0.162 log2 fold change
- Z.LYZ.NS [2, 7]: −1.413
- Dose.FC.LYZ.NS [2, 8]: −0.154 log2 fold change
- Z.LYZ.NS [2, 9]: −1.345
- Dose.FC.LYZ.NS [2, 10]: −0.148 log2 fold change
- Z.LYZ.NS [2, 11]: −1.292
- Dose.FC.LYZ.S [3, 12]: −0.183 log2 fold change
- Dose.FC.LYZ.S [3, 13]: −0.176 log2 fold change
- Dose.FC.LYZ.S [3, 14]: −0.173 log2 fold change
- Dose.FC.LYZ.S [3, 15]: −0.215 log2 fold change

Compound: COc1cccc(C=NCCN=Cc2cccc(OC)c2[O-])c1[O-].[Cl-].[Mn+3] [EUK 134]
- Dose.FC.CTG ([1]; primary screen, dose 0.08 uM): −0.015 log2 fold change
- Dose.FC.CTG ([1]; primary screen, dose 0.40 uM): −0.162 log2 fold change
- Dose.FC.CTG ([1]; primary screen, dose 2.00 uM): 0.091 log2 fold change
- Dose.FC.CTG ([1]; primary screen, dose 10.00 uM): −0.024 log2 fold change
- Z.CTG [1, 24]: −0.035
- Z.CTG [1, 25]: −0.387
- Z.CTG [1, 26]: 0.217
- Z.CTG [1, 27]: −0.057
- Dose.FC.LYZ.NS ([2]; primary screen, dose 0.08 uM): 0.068 log2 fold change
- Dose.FC.LYZ.NS ([2]; primary screen, dose 0.40 uM): 0.003 log2 fold change
- Dose.FC.LYZ.NS ([2]; primary screen, dose 2.00 uM): 0.028 log2 fold change
- Dose.FC.LYZ.NS ([2]; primary screen, dose 10.00 uM): −0.085 log2 fold change
- Z.LYZ.NS [2, 24]: 0.594
- Z.LYZ.NS [2, 25]: 0.026
- Z.LYZ.NS [2, 26]: 0.247
- Z.LYZ.NS [2, 27]: −0.741
- Dose.FC.LYZ.S ([3]; dose 0.08 uM): 0.025 log2 fold change
- Dose.FC.LYZ.S ([3]; dose 0.40 uM): 0.057 log2 fold change
- Dose.FC.LYZ.S ([3]; dose 2.00 uM): −0.034 log2 fold change
- Dose.FC.LYZ.S ([3]; dose 10.00 uM): −0.132 log2 fold change
